From patent US10294202B2, “Pyrrolidinones as herbicides” (FMC Corporation, priority 2013, dated 2019)

Assays:
[1] = tested on: foxtail, green; assay: Test C pre-/postemergence herbicide test; type: in vivo, Setaria viridis
From the text: Seeds of plant species selected from blackgrass (Alopecurus myosuroides), ryegrass, Italian (Italian ryegrass, Lolium multiflorum), wheat (winter wheat, Triticum aestivum), galium (catchweed bedstraw, Galium aparine), corn (Zea mays), crabgrass, large (large crabgrass, Digitaria sanguinalis), foxtail, giant (giant foxtail, Setaria faberii), johnsongrass (Sorghum halepense), lambsquarters (Chenopodium album), morningglory (Ipomoea coccinea), nutsedge, yellow (yellow nutsedge, Cyperus esculentus), pigweed (Amaranthus retroflexus), ragweed (common ragweed, Ambrosia elatior), soybean (Glycine max), barnyardgrass (Echinochloa crus-galli), oilseed rape (Brassica napus), waterhemp (common waterhemp, Amaranthus rudis), kochia (Kochia scoparia), oat, wild (wild oat, Avena fatua), surinam grass (Brachiaria decumbens), foxtail, green (green foxtail, Setaria viridis), goosegrass (Eleusine indica), bromegrass, downy (downy bromegrass, Bromus tectorum), nightshade (eastern black nightshade, Solanum ptycanthum), cocklebur (common cocklebur, Xanthium strumarium), cupgrass, woolly (woolly cupgrass, Eriochloa villosa), bermudagrass (Cynodon dactylon), sunflower, (common oilseed sunflower, Helianthus annuus), Russian thistle (Salsola kali) and velvetleaf (Abutilon theophrasti) were planted into a blend of loam soil and sand and treated preemergence with test chemicals formulated in a non-phytotoxic solvent mixture which included a surfactant. At the same time, plants selected from these crop and weed species and also barley (winter barley, Hordeum vulgare), […]), chickweed (common chickweed, Stellaria media), deadnettle (henbit deadnettle, Lamium amplexicaule), and canarygrass (littleseed canarygrass, Phalaris minor) were planted in pots containing Redi-Earth® planting medium (Scotts Company, 14111 Scottslawn Road, Marysville, Ohio 43041) comprising spaghnum peat moss, vermiculite, wetting agent and starter nutrients and treated with postemergence applications of test chemicals formulated in the same manner. Plants ranged in height from 2 to 18 cm (1- to 4-leaf stage) for postemergence treatments. Treated plants and controls were maintained in a greenhouse for 13 to 15 days, after which time all species were compared to controls and visually evaluated. Plant response ratings, summarized in Table C, are based on a scale of 0 to 100 where 0 is no effect and 100 is complete control. A dash (-) response means no test result.

[2] = tested on: bromegrass, downy; assay: Test D pre-/postemergence herbicide test; type: in vivo, Bromus tectorum; conditions: for Plant response rating, Bromegrass, Downy: scale 0 to 100 (0 no effect, 100 complete control); for Plant response rating: Bromegrass, Downy, scale 0 to 100
From the text: (§1) Seeds of plant species selected from bluegrass (annual bluegrass, Poa annua), blackgrass (Alopecurus myosuroides), canarygrass (littleseed canarygrass, Phalaris minor), chickweed (common chickweed, Stellaria media), galium (catchweed bedstraw, Galium aparine), bromegrass, downy (downy bromegrass, Bromus tectorum), field poppy (Papaver rhoeas), field violet (Viola arvensis), foxtail, green (green foxtail, Setaria viridis), deadnettle (henbit deadnettle, Lamium amplexicaule), ryegrass, Italian (Italian ryegrass, Lolium multiflorum), kochia (Kochia scoparia), lambsquarters (Chenopodium album), oilseed rape (Brassica napus), pigweed (Amaranthus retroflexus), chamomile (scentless chamomile, Matricaria inodora), Russian thistle (Salsola kali), speedwell (bird's-eye speedwell, Veronica persica), barley, spring (spring barley, Hordeum vulgare), wheat, spring (spring wheat, Triticum aestivum), buckwheat, wild (wild buckwheat, Polygonum convolvulus), mustard, wild (wild mustard, Sinapis arvensis), oat, wild (wild oat, Avena fatua), radish, wild (wild radish, Raphanus raphanistrum), […]), barley, winter (winter barley, Hordeum vulgare), and wheat, winter (winter wheat, Triticum aestivum) were planted into a silt loam soil and treated preemergence with test chemicals formulated in a non-phytotoxic solvent mixture which included a surfactant. At the same time, these species were planted in pots containing Redi-Earth® planting medium (Scotts Company, 14111 Scottslawn Road, Marysville, Ohio 43041) comprising spaghnum peat moss, vermiculite, wetting agent and starter nutrients and treated with postemergence applications of the test chemicals formulated in the same manner. Plants ranged in height from 2 to 18 cm (1- to 4-leaf stage). Treated plants and controls were maintained in a controlled growth environment for 7 to 21 days after which time all species were compared to controls and visually evaluated. Plant response ratings, summarized in Table D, are based on a scale of 0 to 100 where 0 is no effect and 100 is complete control. A dash (-) response means no test result.

[3] = tested on: wheat, winter; assay: Test D pre-/postemergence herbicide test; type: in vivo, Triticum aestivum; conditions: for Plant response rating, Wheat, Winter: Preemergence, scale 0 to 100 (0 no effect, 100 complete control); for Plant response rating: Postemergence, Wheat, Winter, scale 0 to 100
From the text: as §1

[4] = tested on: Russian thistle; assay: Test D pre-/postemergence herbicide test; type: in vivo, Salsola kali; conditions: for Plant response rating: Postemergence, Russian Thistle, scale 0 to 100; for Plant response rating, Russian Thistle: Preemergence, scale 0 to 100 (0 no effect, 100 complete control)
From the text: as §1

[5] = Postemergence, 31 g ai/ha, scale 0 (no effect) to 100 (complete control)
[6] = Postemergence, 62 g ai/ha, scale 0 to 100 (0 no effect, 100 complete control)
[7] = Postemergence, 125 g ai/ha, scale 0 to 100 (0 no effect, 100 complete control)
[8] = Preemergence, 62 g ai/ha, scale 0 to 100
[9] = Preemergence, 125 g ai/ha, scale 0 to 100 (0 no effect, 100 complete control)
[10] = Preemergence, 31 g ai/ha, scale 0 to 100 (0 no effect, 100 complete control)
[11] = Preemergence, 250 g ai/ha, scale 0 to 100 (0 no effect, 100 complete control)

| Structure (SMILES) | Plant response rating, Foxtail, Green [1, 5] | Plant response rating, Foxtail, Green [1, 6] | Plant response rating, Foxtail, Green [1, 7] | Plant response rating, Foxtail, Green [1, 8] | Plant response rating, Foxtail, Green [1, 9] | Foxtail, Green plant response rating [1, 10] | Plant response rating, Bromegrass, Downy ([2]; Preemergence, 62 g ai/ha) | Plant response rating, Bromegrass, Downy ([2]; Preemergence, 31 g ai/ha) | Plant response rating ([2]; Preemergence, 250 g ai/ha) | Plant response rating, Wheat, Winter ([3]; 62 g ai/ha) | Plant response rating, Wheat, Winter ([3]; 125 g ai/ha) | Plant response rating, Wheat, Winter ([3]; 31 g ai/ha) | Plant response rating, Wheat, Winter ([3]; 250 g ai/ha) | Plant response rating ([2]; Postemergence, 31 g ai/ha) | Plant response rating ([2]; Postemergence, 62 g ai/ha) | Plant response rating ([2]; Postemergence, 125 g ai/ha) | Plant response rating ([2]; Postemergence, 250 g ai/ha) | Plant response rating ([4]; 31 g ai/ha) | Plant response rating ([4]; 62 g ai/ha) | Plant response rating ([4]; 125 g ai/ha) | also measured |
| --- | --- | --- | --- | --- | --- | --- | --- | --- | --- | --- | --- | --- | --- | --- | --- | --- | --- | --- | --- | --- | --- |
| O=C1NCC(c2ccc(F)c(Cl)c2)C1C(=O)Nc1ccccc1F (centres unmarked) [Compound 60] | 20 | 35 | 45 | 90 | 90 | 90 |  |  |  |  |  |  |  |  |  |  |  |  |  |  |  |
| O=C1NCC(c2ccc(F)c(C(F)(F)F)c2)C1C(=O)Nc1cccc(F)c1F (racemic) [Compound 77] |  |  |  |  |  |  | 0 | 0 | 25 | 0 | 25 | 0 | 55 |  |  |  |  |  |  |  | Plant response rating ([2]; Preemergence, 125 g ai/ha): 10 |
| O=C1NCC(c2ccc(C(F)(F)F)cc2)C1C(=O)Nc1ccccc1F (centres unmarked) [Compound 231] |  |  |  |  |  |  | 0 | 0 | 15 | 10 | 15 | 5 | 25 | 15 | 20 | 25 | 25 | 20 | 35 | 35 | Plant response rating, Bromegrass, Downy ([2]; Preemergence, 125 g ai/ha): 0; Plant response rating ([4]; 250 g ai/ha): 35; Plant response rating, Russian Thistle ([4]; 62 g ai/ha): 5; Plant response rating, Russian Thistle ([4]; 125 g ai/ha): 15; Plant response rating, Russian Thistle ([4]; 31 g ai/ha): 0; Plant response rating, Russian Thistle ([4]; 250 g ai/ha): 30; Plant response rating ([3]; 31 g ai/ha): 0; Plant response rating ([3]; 62 g ai/ha): 0; Plant response rating ([3]; 125 g ai/ha): 0; Plant response rating ([3]; 250 g ai/ha): 0 |
| O=C1NCC(c2cc(F)c(F)c(F)c2)C1C(=O)Nc1cccc(F)c1F (centres unmarked) [Compound 48] | 0 | 0 | 65 | 90 | 90 | 80 |  |  |  |  |  |  |  |  |  |  |  |  |  |  | Plant response rating, Foxtail, Green ([1]; Postemergence, 16 g ai/ha, scale 0 to 100 (0 no effect, 100 complete control)): 0; Plant response rating, Foxtail, Green ([1]; Preemergence, 16 g ai/ha, scale 0 to 100): 70 |
| O=C1NCCC1C(=O)N(c1ccc(F)c(F)c1)c1ccccc1F (centres unmarked) [Compound 5, N-(3,4-difluorophenyl)-N-(2-fluorophenyl)-2-oxo-3-pyrrolidinecarboxamide] |  |  |  | 90 | 90 | 85 |  |  |  |  |  |  |  |  |  |  |  |  |  |  | Plant response rating, Foxtail, Green [1, 11]: 95 |
| O=C1NCC(c2ccc(F)c(F)c2)C1C(=O)Nc1cccc(F)c1F (centres unmarked) [Compound 17, N-(2,3-difluorophenyl)-4-(3,4-difluorophenyl)-2-oxo-3-pyrrolidinecarboxamide] | 0 | 0 | 0 | 95 | 98 | 95 |  |  |  |  |  |  |  | 0 | 0 | 0 | 0 | 0 | 0 | 20 | Plant response rating, Foxtail, Green ([1]; Postemergence, 250 g ai/ha, scale 0 to 100 (0 no effect, 100 complete control)): 0; Plant response rating, Foxtail, Green [1, 11]: 98; Plant response rating ([2]; Postemergence, 16 g ai/ha): 0; Plant response rating ([4]; 16 g ai/ha): 0; Plant response rating ([4]; 250 g ai/ha): 40; Plant response rating ([3]; 16 g ai/ha): 0; Plant response rating ([3]; 31 g ai/ha): 0; Plant response rating ([3]; 62 g ai/ha): 0; Plant response rating ([3]; 125 g ai/ha): 0; Plant response rating ([3]; 250 g ai/ha): 0 |
| O=C1NCC(c2ccc(F)c(F)c2)C1C(=O)Nc1ccccc1C(F)(F)F (racemic) [Compound 6] |  |  |  |  |  |  | 0 | 0 | 10 | 0 | 0 | 0 | 0 | 0 | 0 | 0 | 0 | 0 | 0 | 0 | Plant response rating ([2]; Postemergence, 16 g ai/ha): 0; Plant response rating, Bromegrass, Downy ([2]; Preemergence, 16 g ai/ha): 0; Plant response rating ([2]; Preemergence, 125 g ai/ha): 0; Plant response rating ([4]; 16 g ai/ha): 0; Plant response rating ([4]; 250 g ai/ha): 100; Plant response rating, Russian Thistle ([4]; 62 g ai/ha): 0; Plant response rating, Russian Thistle ([4]; 125 g ai/ha): 10; Plant response rating, Russian Thistle ([4]; 16 g ai/ha): 0; Plant response rating, Russian Thistle ([4]; 31 g ai/ha): 0; Plant response rating, Russian Thistle ([4]; 250 g ai/ha): 30; Plant response rating ([3]; 16 g ai/ha): 0; Plant response rating ([3]; 31 g ai/ha): 0; Plant response rating ([3]; 62 g ai/ha): 0; Plant response rating ([3]; 125 g ai/ha): 0; Plant response rating ([3]; 250 g ai/ha): 0; Plant response rating, Wheat, Winter ([3]; 16 g ai/ha): 0 |
| O=C1NCC(c2cccc(OC(F)(F)F)c2)C1C(=O)Nc1ccccc1F (centres unmarked) [Compound 69] |  |  |  | 90 | 95 |  |  |  |  |  |  |  |  |  |  |  |  |  |  |  | Foxtail, Green plant response rating ([1]; Preemergence, 31 g ai/ha, scale 0 to 100, 0 is no effect and 100 is complete control): 90; Plant response rating (scale of 0 to 100), Foxtail, Green ([1]; Preemergence, 250 g ai/ha): 95 |
